Laboratory results: patent publication US5547978A, “Derivatives of pyrrolidin-2-ylcarbonylheterocyclic compounds” (priority 1994, dated 1996)
Like-named read-outs stand apart in the source and are kept apart here.

Legend:
[1] = target: T1, prolyl endopeptidase (Sus scrofa, UniProt P23687); experiment: Prolyl endopeptidase-inhibitory activity in vitro (porcine kidney enzyme, Z-Gly-Pro-p-nitroanilide substrate); type: biochemical
T1 construct: porcine kidney enzyme which was prepared according to methods of Walter and Yoshimoto et al; from tissue; host or cells: porcine kidney
Experimental: A test compound (2 mg) was dissolved in DMSO (2 ml) and diluted to appropriate concentrations with DMSO. Z-Gly-Pro-p-nitroanilide (8 mg), a substrate was dissolved in dioxane (5 ml), water (27 ml) and 0.2 M phosphate buffer (pH 7.8, 40 ml). The substrate solution ([…]) was mixed with an inhibitor solution (3 ml) and followed by addition of above mentioned porcine kidney enzyme solution ([…]). Immediately after the mixing the UV absorbance at 405 nm was detected. The mixture was incubated at 37° C. for 20 min. and the UV absorbance was checked. A standard curve of absorbance (OD) vs. p-nitroaniline concentration was used to relate the absorbance to amount of substrate hydrolyzed. […] The inhibiting activity was obtained following the equation below. The IC50 value was estimated from the inhibitor concentration vs. inhibitory activity curve.
The percent inhibitory activity (%)=(ΔODc -ΔODs)/ΔODc ×100
ΔODs : ΔOD for test sample

[2] = test system: brain prolyl endopeptidase; experiment: Ex vivo prolyl endopeptidase inhibition in brain after oral administration; settings: rat, p.o.; for PEP Actively in brain (% of control): 10 mg/kg
Experimental: Ex vivo enzyme inhibition studies were performed to assess the degree of CNS availability and prolyl endpeptidase inhibition after oral administration. Compounds were dissolved in a minimal mount of ethanol (about 10% total volume) and made up to the appropriate volume with 1% polyoxyether sorbitan monooleate (Tween 80). Rats were dosed p.o. and at the appropriate times killed. The brains were removed, homogenised in the ice-cooled assay buffer, and centrifugated.

T1 sequence (P23687 whole entry): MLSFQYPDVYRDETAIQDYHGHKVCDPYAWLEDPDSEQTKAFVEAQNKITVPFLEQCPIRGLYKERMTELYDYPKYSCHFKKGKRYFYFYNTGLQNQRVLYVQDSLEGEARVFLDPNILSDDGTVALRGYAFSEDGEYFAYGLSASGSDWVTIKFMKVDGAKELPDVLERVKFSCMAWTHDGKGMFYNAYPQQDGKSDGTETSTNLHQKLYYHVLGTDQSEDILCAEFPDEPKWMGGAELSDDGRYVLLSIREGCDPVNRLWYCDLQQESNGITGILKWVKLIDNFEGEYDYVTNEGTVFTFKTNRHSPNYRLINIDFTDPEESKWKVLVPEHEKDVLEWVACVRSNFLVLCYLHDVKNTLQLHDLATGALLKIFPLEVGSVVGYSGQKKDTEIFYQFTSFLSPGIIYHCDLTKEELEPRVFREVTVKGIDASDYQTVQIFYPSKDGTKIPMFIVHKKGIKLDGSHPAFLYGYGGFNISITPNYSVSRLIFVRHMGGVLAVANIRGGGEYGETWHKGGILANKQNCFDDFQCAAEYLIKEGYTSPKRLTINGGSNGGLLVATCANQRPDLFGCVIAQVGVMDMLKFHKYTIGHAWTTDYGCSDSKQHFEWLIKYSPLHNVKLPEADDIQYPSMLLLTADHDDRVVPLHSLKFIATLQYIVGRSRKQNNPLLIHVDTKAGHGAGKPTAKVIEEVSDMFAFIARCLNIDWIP

Row | IC50 ([1]; porcine kidney enzyme, pH 7.8, 37° C., 20 min, read-out: IC50 (converted)) | Compound | PEP Actively in brain (% of control) ([2]; 0.25 hr) | PEP Actively in brain (% of control) ([2]; 0.5 hr) | PEP Actively in brain (% of control) ([2]; 1 hr) | PEP Actively in brain (% of control) ([2]; 2 hr) | PEP Actively in brain (% of control) ([2]; 4 hr) | PEP Actively in brain (% of control) ([2]; 6 hr) | brain prolyl endopeptidase inhibition (potency compared with SUAM-1221) ([2]; ex vivo, in words) | duration of action on brain prolyl endopeptidase (compared with SUAM-1221) ([2]; ex vivo, in words) | IC50 [1]
1 | 2.14 nM | O=C(c1nc2ccccc2s1)[C@@H]1CCCN1C(=O)[C@@H]1CCCN1C(=O)CCCc1ccccc1 [Example 1, 2-[1-{1-(4-Phenylbutanoyl)pyrrolidin-2(S)-ylcarbonyl}pyrrolidin-2(S)-ylcarbonyl]benzothiazole] | 42 % of control | 21 % of control | 32 % of control | 47 % of control | 69 % of control | 98 % of control | more potent than SUAM-1221 | longer duration of action | 
2 |  | O=C(c1nccs1)[C@@H]1CCCN1C(=O)[C@@H]1Cc2ccccc2N1C(=O)OCc1ccccc1 [Example 8, 2-{1-(1-Benzyloxycarbonylindolin-2(S)-ylcarbonyl)pyrrolidin-2(S)-ylcarbonyl}thiazole] |  |  |  |  |  |  |  |  | 3.68 nM
